Among the test systems are A498 renal; U251 CNS; HCT-15 colon; SR leukemia; NCI-H23 lung; SF-295 CNS; SNB-75 CNS; T-47D breast; RPMI-8226 leukemia; IGROV1 ovarian.
What all share (assay): NCI tumour cell line growth inhibition, 48 h

SMILES strings stand for the structures. Where “and” joins values, the source holds several entries; their conditions need not be identical. Equal entries are not always repeated.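 Each compound was tested at five concentrations against cells in 96-well plates for 48 hours. GI50 = concentration required for 50% inhibition of growth. Definition used: TGI = concentration required for complete inhibition of growth.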

Consider `CCc1nc(N)nc(N)c1-c1ccc2nnn(O)c2c1`, for which the TGI with A498 renal, in the test on U251 CNS, with HCT-15 colon, with SR leukemia, with NCI-H23 lung and in the test on SF-295 CNS was > 100 µM in each case. In addition, the TGI with SNB-75 CNS, with T-47D breast, with RPMI-8226 leukemia and in the test with IGROV1 ovarian was > 100 µM in each case.
Regarding `O=C(O)C(C(=O)O)P(=S)(S)c1ccccc1` (stereo not drawn), the TGI with A498 renal, in the test on U251 CNS, with HCT-15 colon, with SR leukemia, in the test on NCI-H23 lung and in the test with SF-295 CNS was > 100 µM each time. Further, the TGI in the test on SNB-75 CNS, with T-47D breast, in the test with RPMI-8226 leukemia and in the test on IGROV1 ovarian was > 100 µM each time.
As to `Cc1ccc2c(c1)c(Sc1ccc(C(=O)NO)cc1)c1n2CN(C)CC1`, the GI50 was 0.191 µM in the test with A498 renal; 1.61 µM with U251 CNS; 3.65 µM with HCT-15 colon; 2.69 µM with SR leukemia; 1.8 µM with NCI-H23 lung; 1.83 µM with SF-295 CNS. The GI50 in the test on SNB-75 CNS is 0.96 µM; in the test on T-47D breast, 1.53 µM; in the test on RPMI-8226 leukemia, 1.1 µM; with IGROV1 ovarian it was 2.23 µM. The TGI with A498 renal came to 2.16 µM; with U251 CNS, 3.42 µM; with HCT-15 colon, 13.6 µM; in the test with SR leukemia, 8.93 µM; in the test on NCI-H23 lung, 3.85 µM; with SF-295 CNS it was 3.69 µM. The TGI with SNB-75 CNS came out at 3.76 µM; with T-47D breast, 5.45 µM; in the test on RPMI-8226 leukemia, 9.86 µM; with IGROV1 ovarian it was 5.46 µM.
In the case of `N=C(N)SCc1c2ccccc2c(CSC(=N)N)c2ccccc12`, the GI50 with A498 renal was 7.42 µM; with U251 CNS, 3.13 µM; with HCT-15 colon, 12.4 µM; in the test with SR leukemia, 0.408 µM; in the test on NCI-H23 lung, 4.04 µM; with SF-295 CNS, 5.25 µM. Moreover, the GI50 in the test on SNB-75 CNS is 12.2 µM; in the test on T-47D breast, 3.97 µM; with RPMI-8226 leukemia, 2.56 µM; in the test on IGROV1 ovarian it was 18.2 µM. The TGI was 22.9 µM with A498 renal; 26.7 µM with U251 CNS; 32.4 µM in the test on HCT-15 colon; 3.03 µM with SR leukemia; 20.5 µM in the test with NCI-H23 lung; 24.2 µM in the test on SF-295 CNS. Besides, the TGI with SNB-75 CNS is 26.9 µM; in the test with T-47D breast, 22.1 µM; in the test with RPMI-8226 leukemia, 16.8 µM; in the test with IGROV1 ovarian, 78.4 µM.
With `O=C(/C(=C/c1ccc([N+](=O)[O-])cc1)SCc1ccc(Cl)cc1)c1ccc(F)cc1`, the GI50 in the test on A498 renal is 13.9 µM; in the test with U251 CNS, 1.74 µM; with HCT-15 colon, 1.9 µM; with SR leukemia, 2.01 µM; in the test on NCI-H23 lung, 3.92 µM; in the test on SF-295 CNS, 4.02 µM. Further, the GI50 in the test on SNB-75 CNS was 16.1 µM; in the test with T-47D breast, 4.32 µM; with RPMI-8226 leukemia, 0.81 µM; in the test on IGROV1 ovarian, 3.93 µM. Further, the TGI was 38.4 µM in the test on A498 renal; 3.17 µM in the test with U251 CNS; 4.26 µM with HCT-15 colon; > 26.5 µM in the test with SR leukemia; 21.9 µM with NCI-H23 lung; 14.4 µM in the test on SF-295 CNS. In addition, the TGI in the test with SNB-75 CNS was determined as 65.6 µM; with T-47D breast, 19.3 µM; with RPMI-8226 leukemia, 4 µM; in the test on IGROV1 ovarian, 22.3 µM.
In the case of `C[C@@H](NC(=O)/C(C#N)=C/c1ccc([N+](=O)[O-])cc1)c1ccccc1`, the GI50 in the test on A498 renal was 4.25 µM; in the test on U251 CNS, 1.79 µM; with HCT-15 colon it was 1.85 µM; in the test on SR leukemia it was 1.73 µM; in the test on NCI-H23 lung, 2.08 µM; in the test on SF-295 CNS, 2.25 µM. Besides, the GI50 in the test on SNB-75 CNS was 2.19 µM; in the test on T-47D breast, 5.53 µM; in the test with RPMI-8226 leukemia, 2.23 µM; in the test on IGROV1 ovarian, 2.9 µM. In addition, the TGI in the test with A498 renal came to 8.49 µM; in the test with U251 CNS, 3.44 µM; in the test on HCT-15 colon, 3.88 µM; with SR leukemia, 5.55 µM; with NCI-H23 lung, 5.02 µM; in the test on SF-295 CNS it was 5.49 µM. Besides, the TGI in the test on SNB-75 CNS turned out to be 8.33 µM; in the test with T-47D breast, 26.4 µM; with RPMI-8226 leukemia, 5.95 µM; in the test on IGROV1 ovarian, 8.13 µM.
`COC(=O)C1=COC(C)C2CN3CCc4c([nH]c5cc(OC)c(OC)cc45)C3CC12` (stereo not drawn): the TGI in the test on A498 renal, in the test on U251 CNS, in the test on HCT-15 colon, in the test with SR leukemia, in the test on NCI-H23 lung and in the test with SF-295 CNS was > 100 µM in each case. Besides, the TGI in the test with SNB-75 CNS, in the test with T-47D breast, in the test on RPMI-8226 leukemia and in the test on IGROV1 ovarian was > 100 µM throughout. Further, the GI50 is > 100 µM and 47.4 µM in the test on U251 CNS; 38.7 µM and > 100 µM in the test with SNB-75 CNS; > 100 µM and 45.7 µM with IGROV1 ovarian.
